# From patent US20090214607A1, “Topical use of teprenone” (SEDERMA, priority 2005, published 2009)
# Columns and labels:
# [1] = tested on: sunburn cells (SBC) in human skin explants; experiment: Sunburn cells (SBC) in human skin explants after UVB; assay type: cell-based; conditions: for % SBC (Sun Burn Cells): after UVB 2 J/cm^2
# Procedure: With a view to determining the action of teprenone as per the invention, the effect of the active substance on the presence of sunburn cells (SBC) and apoptotic cell in human skin explants was investigated.
# Human skin explants are treated in a way similar to the preceding experiment of description of the protective role of the teprenone on the catalase activity (obtained from a patient having undergone plastic surgery, cultured with or without teprenone for 48 hours then exposed to UV B radiation (2 J/cm^2). After irradiation, the explants were again cultured in fresh medium with or without teprenone for 24 hours).
# SBC were evidenced on paraffin-wax-embedded skin explant sections by staining with […]. SBC, apoptotic keratinocytes with pyknotic nuclei and eosinophilic cytoplasm, are characteristic of mammalian epidermis exposed to UV B radiation.
# [2] = tested on: Normal human fibroblasts (NHF); experiment: Replicative senescence: variation of division number; assay type: cell-based; conditions: 1 and 3 μM; long-term contact; 64th day to 95th day
# Procedure: Replicative senescence reflects the aging of cells in cultures as they are serially sub-cultured. Normal human fibroblasts (NHF) were cultured in the absence or presence of 1 and 3 μM teprenone. At regular intervals, without awaiting confluence, the cells were counted, observed and sub-cultured at the same rate.
# [3] = tested on: human primary keratinocytes; experiment: Gene expression profile by DNA array (CodeLink Whole Genome bioarray); assay type: cell-based
# Procedure: Human primary keratinocyte cultures were prepared and incubated in the presence or absence of teprenone. The culture supernatants were withdrawn and the cell monolayers frozen at −80° C. The un-thawed monolayers were exposed to lysis buffer and the cell RNA extracted using a commercially-available kit (Roche kit V6: total RNA extraction). Solvent controls underwent the same extraction process in parallel. The expression profiles of the gene sequences were determined using a CodeLink Whole Genome bioarray for each sample of purified RNA. The values obtained were normalized relative to the controls.
# Hsp70 = Hsp70 immunolabeling in UVB-irradiated human skin explants; assay type: cell-based; conditions: for Number of Hsp70 positive cells/cm: UVB 2 J/cm2, n = 3
# Source text: Heat Schock proteins (Hsp) are cellular protective molecules which contribute to the correct proteinic folding, thus preserving the protein activity. Hsp 27 is a protective chaperone protein very present in the keratinocytes at the basal state. In situation of UV stress, cell increases its rate of protection and Hsp 27 is strongly overexpressed. Hsp70 is a chaperone protein less expressed in a basal state but induced in response to the UV, thermics, mechanics or infectious stress.
# Human skin explants are treated in a similar way to the previous experiment (protection on the catalase activity): taken from a plastic surgery, they are cultivated for 48 h in the presence or not, for control, of teprenone (or trolox) at various concentrations, then irradiated or not using a source UVB (2 J/cm2). After irradiation skin explants were post-treated (24 h) or not with teprenone (or trolox) at the same concentrations.
# Explants were embedded in OCT, sectioned using a freezing microtome, and slide mounted. The mounted specimens were immunolabeled with anti-human Hsp antibody.
# catalase = experiment: Catalase activity in human skin explants after UVB (Clairborne-Aebi method); assay type: cell-based; conditions: for protective effect on enzymatic activity of catalase: vs UVB; for catalase activity: after UVB 2 J/cm2
# Procedure: Human skin explants obtained from a patient having undergone plastic surgery were cultured with or without teprenone or Trolox (positive control) for 48 hours then exposed to UV B radiation (2 J/cm^2). After irradiation, the explants were again cultured in fresh medium with or without teprenone or Trolox for 24 hours. Similars explants were also used in immunolabeling tests on heat shock proteins (HSP) and in the apoptosis study.
# Catalase anti-oxidant activity was determined by the Clairborne-Aebi method. Hydrogen peroxide (H2O2) consumption is directly proportional to catalase activity. The consumption was determined by spectrophotometry at 240 nm
# [4] = Lipid peroxidation of liposomes using H2O2+FeCl2; assay type: biochemical; conditions: for Variation of peroxydation: vs negative control
# Procedure: In order to determine the action of teprenone as per the invention, the effect of the active substance on the lipid peroxidation of liposomes was analyzed. The liposomes were used to model cutaneous lipids.
# In this method, liposomes are exposed to the test compound and a Fenton oxidative system. The peroxidation is determined by spectrophotometry. Trolox, a known anti-free radical agent, is used as the positive control at the same molar concentration as a teprenone.
smiles,measurement,setting,value
"CC(=O)CCC=C(C)CCC=C(C)CCC=C(C)CCC=C(C)C [Teprenone, 6,10,14,18-tetramethyl-5,9,13-nonadecatetren-2-one]",% SBC (Sun Burn Cells),[1]; 0.05 mM,45%
same,% SBC (Sun Burn Cells),[1]; 0.1 mM,27%
same,diminution of SBC,"[1]; after UVB, vs irradiated",−66%
same,capacities of divisions of the cells,[2],level higher compared to the control
same,expression of CBX5/HP1,[3]; 24 hour period,jointly activated
same,expression of CDK2,[3]; 24 hour period,jointly activated
same,expression of ELAVL1,[3]; 24 hour period,activation
same,expression of ERBIN gene,[3]; 24 hour period,up-regulated
same,expression of PTPRF-interacting gene,[3]; 24 hour period,up-regulated
same,expression of SERTAD3,[3]; 24 hour period,activated
same,expression of gene SCLY,[3]; 24 hour period,significantly up-regulated
same,expression of gene for heat shock protein HSP 27,[3]; 24 hour period,induction
same,expression of gene for heat shock protein HSP B3,[3]; 24 hour period,induction
same,"genes activated, effect on cell lipid content",[3]; cholesterol efflux and fatty acid synthesis,6 genes
same,Hsp70: Protection vs. irradiated (%),Hsp70; 0.05 mM,66%
same,Hsp70: Protection vs. irradiated (%),Hsp70; 0.1 mM,100%
same,Hsp70: Protection vs. irradiated (%),"Hsp70; 0.1 mM, listed as GGA",100%
same,Number of Hsp70 positive cells/cm,Hsp70; 0.05 mM,130 cells/cm
same,Number of Hsp70 positive cells/cm,Hsp70; 0.1 mM,40 cells/cm
same,protective effect on enzymatic activity of catalase,catalase; 0.05 mM,+40%
same,protective effect on enzymatic activity of catalase,catalase; 0.1 mM,+45%
same,catalase activity,catalase; 0.05 mM,125 UI/mg of protein
same,catalase activity,catalase; 0.1 mM,130 UI/mg of protein
same,Variation of peroxydation,[4]; concentration 3 · 10^−2%,−75%
same,Variation of peroxydation,[4]; concentration 3 · 10^−3%,−26%
same,Variation of peroxydation,[4]; concentration 3 · 10^−4%,−16%
same,decrease in peroxidation,[4]; concentration 3.10^−2%,75%
same,Variation of peroxydation,[4]; concentration 10^−2%,−39%
same,Variation of peroxydation,[4]; concentration 10^−3%,−20%
